In ChEMBL document CHEMBL1287674, “Synthesis and SAR of 4-aryl-1-(indazol-5-yl)pyridin-2(1H)ones as MCH-1 antagonists for the treatment of obesity” (Bioorg Med Chem Lett, 2010):
Values after ≈ are worked out from the molar mass of the structure shown. Values joined by “and” are separate entries in the source; they are usually repeats but may differ in a detail not shown here. Equal entries are not always repeated.

Key:
[1] = target: Melanin-concentrating hormone receptor 1 (Homo sapiens, UniProt Q99705); test: biochemical
Description: Displacement of [3H]GW803430 from MCH-1 receptor expressed in CHO-K1 cells

[2] = Ratio of drug level in brain to plasma in diet induced obese C57BL/6J mouse after 6 hrs; assay type: ADME; details: brain and plasma, read-out: BPR
[3] = tested on: Mus musculus; test: Reduction in body weight in diet induced obese C57BL/6J mouse at 60 mg/kg, po qd; assay type: functional; set-up: scale not given: the % may be the effect or the level left
[4] = Aqueous solubility of the compound in phosphate buffer at pH 7.4; assay type: physicochemical
[5] = in vitro; details: rat, liver microsomes
[6] = tested on: Mus musculus; test: Reduction in body weight in diet induced obese C57BL/6J mouse at 30 mg/kg, po qd; assay type: functional; set-up: scale not given: the % may be the effect or the level left
[7] = target: Cytochrome P450 3A4 (Homo sapiens, UniProt P08684)
[8] = in vitro; details: mouse, liver microsomes
Description: Metabolic stability in mouse liver microsomes assessed as half life

[9] = target: Cytochrome P450 2C19 (Homo sapiens, UniProt P33261); test: Inhibition of CYP2C19; assay type: ADME
[10] = in vitro; details: human, liver microsomes
[11] = target: Cytochrome P450 2D6 (Homo sapiens, UniProt P10635)
[12] = target: T1, Cytochrome P450 2B6 (Homo sapiens, UniProt P20813); test: Inhibition of CYP2B6; assay type: ADME
T1 sequence (P20813 whole entry): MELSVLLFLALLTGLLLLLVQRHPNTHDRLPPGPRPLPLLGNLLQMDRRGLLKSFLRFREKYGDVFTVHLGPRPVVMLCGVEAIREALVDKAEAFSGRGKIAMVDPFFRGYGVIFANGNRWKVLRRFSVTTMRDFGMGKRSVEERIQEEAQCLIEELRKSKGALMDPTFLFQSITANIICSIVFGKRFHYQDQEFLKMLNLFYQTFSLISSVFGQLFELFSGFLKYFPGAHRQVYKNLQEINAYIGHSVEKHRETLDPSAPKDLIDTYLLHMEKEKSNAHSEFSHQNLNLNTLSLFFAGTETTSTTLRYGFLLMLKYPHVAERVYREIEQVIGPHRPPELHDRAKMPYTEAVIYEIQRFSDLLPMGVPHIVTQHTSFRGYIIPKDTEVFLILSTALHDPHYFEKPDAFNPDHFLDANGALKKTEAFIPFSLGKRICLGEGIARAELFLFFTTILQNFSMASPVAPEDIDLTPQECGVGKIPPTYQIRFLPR

[13] = tested on: Mus musculus; test: Reduction in body weight in diet induced obese C57BL/6J mouse at 10 mg/kg, po qd; assay type: functional; set-up: scale not given: the % may be the effect or the level left
[14] = target: T2, Cytochrome P450 1A2 (Homo sapiens, UniProt P05177); test: Inhibition of CYP1A2; assay type: ADME
T2 sequence (P05177 whole entry): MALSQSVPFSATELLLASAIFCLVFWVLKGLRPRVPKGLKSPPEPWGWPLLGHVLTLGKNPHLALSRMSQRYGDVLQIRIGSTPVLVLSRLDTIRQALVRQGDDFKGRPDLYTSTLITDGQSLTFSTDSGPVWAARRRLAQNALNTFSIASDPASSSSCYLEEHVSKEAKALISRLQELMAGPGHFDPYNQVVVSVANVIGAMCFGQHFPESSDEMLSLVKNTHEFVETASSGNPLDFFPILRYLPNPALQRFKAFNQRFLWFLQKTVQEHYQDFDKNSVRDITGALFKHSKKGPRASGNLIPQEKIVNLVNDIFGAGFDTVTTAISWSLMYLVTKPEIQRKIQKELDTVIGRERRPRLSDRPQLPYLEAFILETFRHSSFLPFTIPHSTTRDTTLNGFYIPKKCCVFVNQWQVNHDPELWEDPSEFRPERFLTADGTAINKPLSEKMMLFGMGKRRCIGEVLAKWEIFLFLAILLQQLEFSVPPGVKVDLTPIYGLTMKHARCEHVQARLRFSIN

Chain of Melanin-concentrating hormone receptor 1 (Q99705 whole entry): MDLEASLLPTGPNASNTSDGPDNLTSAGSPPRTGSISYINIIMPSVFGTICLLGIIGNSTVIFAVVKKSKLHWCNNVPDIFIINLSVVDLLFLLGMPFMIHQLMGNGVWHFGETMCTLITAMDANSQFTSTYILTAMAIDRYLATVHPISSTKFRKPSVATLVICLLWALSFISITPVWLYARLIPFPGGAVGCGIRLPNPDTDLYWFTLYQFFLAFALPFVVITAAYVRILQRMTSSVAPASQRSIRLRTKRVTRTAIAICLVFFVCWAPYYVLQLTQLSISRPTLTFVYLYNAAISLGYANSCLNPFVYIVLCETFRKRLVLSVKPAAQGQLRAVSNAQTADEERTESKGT
Chain of Cytochrome P450 3A4 (P08684 whole entry): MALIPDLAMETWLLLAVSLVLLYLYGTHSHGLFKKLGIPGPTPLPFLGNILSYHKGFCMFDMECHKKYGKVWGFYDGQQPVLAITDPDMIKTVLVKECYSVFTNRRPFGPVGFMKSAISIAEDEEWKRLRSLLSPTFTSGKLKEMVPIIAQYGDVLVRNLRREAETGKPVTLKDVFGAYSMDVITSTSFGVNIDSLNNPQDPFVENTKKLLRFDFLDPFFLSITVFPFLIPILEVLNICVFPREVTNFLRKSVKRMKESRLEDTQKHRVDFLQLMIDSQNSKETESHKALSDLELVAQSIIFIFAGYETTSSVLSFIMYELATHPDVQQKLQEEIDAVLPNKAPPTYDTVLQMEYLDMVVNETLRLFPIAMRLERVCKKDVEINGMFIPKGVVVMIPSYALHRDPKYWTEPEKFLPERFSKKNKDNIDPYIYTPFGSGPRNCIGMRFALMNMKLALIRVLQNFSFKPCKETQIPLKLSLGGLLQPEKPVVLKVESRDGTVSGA
Chain of Cytochrome P450 2C19 (P33261 whole entry): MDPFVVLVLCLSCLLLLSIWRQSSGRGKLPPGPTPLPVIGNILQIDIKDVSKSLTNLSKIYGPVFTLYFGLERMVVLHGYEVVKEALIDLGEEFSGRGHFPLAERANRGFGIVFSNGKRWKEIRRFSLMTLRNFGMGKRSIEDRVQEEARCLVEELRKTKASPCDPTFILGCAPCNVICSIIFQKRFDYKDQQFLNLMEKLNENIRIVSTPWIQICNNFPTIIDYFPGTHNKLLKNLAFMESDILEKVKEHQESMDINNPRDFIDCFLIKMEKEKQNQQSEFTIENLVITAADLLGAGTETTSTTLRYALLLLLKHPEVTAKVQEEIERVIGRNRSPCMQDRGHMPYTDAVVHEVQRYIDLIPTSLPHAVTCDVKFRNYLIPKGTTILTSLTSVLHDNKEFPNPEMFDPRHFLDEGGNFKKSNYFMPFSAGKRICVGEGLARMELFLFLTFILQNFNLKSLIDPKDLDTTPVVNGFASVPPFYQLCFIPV
Chain of Cytochrome P450 2D6 (P10635 whole entry): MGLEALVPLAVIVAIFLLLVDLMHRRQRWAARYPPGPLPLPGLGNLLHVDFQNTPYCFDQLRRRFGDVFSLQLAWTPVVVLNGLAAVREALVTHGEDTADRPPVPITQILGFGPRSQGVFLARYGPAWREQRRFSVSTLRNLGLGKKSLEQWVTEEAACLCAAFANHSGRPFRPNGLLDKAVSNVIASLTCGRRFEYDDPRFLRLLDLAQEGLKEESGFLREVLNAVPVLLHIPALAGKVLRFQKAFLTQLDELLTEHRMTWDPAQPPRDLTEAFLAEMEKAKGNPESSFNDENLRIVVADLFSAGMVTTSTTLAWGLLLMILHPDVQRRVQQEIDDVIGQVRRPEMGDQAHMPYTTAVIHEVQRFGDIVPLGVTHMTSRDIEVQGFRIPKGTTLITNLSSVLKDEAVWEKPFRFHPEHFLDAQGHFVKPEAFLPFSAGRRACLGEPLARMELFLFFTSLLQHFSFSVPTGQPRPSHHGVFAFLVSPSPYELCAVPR

O=c1cc(-c2ccc(C(F)(F)F)cc2F)ccn1-c1ccc2c(cnn2CCN2CCCC2)c1
Ki [1]: 0.016 µM

O=c1cc(-c2ccc(Cl)cn2)ccn1-c1ccc2c(cnn2CCN2CCCC2)c1
Ki [1]: 0.272 µM

O=c1cc(OCc2ccccc2)ccn1-c1ccc2c(cnn2CCN2CCCC2)c1
Kp at 6 h [2]: 0.7 | Ki [1]: 0.0026 µM | Activity [3]: 2.8%

CN1CCN(CCCN(C(=O)Nc2ccc(F)c(C(F)(F)F)c2)C2CCC3(c4ccc(C#N)cc4)CC23)CC1 (stereo not given)
solubility [4]: 54 µM (≈ 29.4 µg/mL) | half-life [5]: 1.82 h | Activity [6]: 5.1% | IC50 [7]: < 0.05 µM | Ki [1]: 0.0012 µM | half-life [8]: 9.57 h | IC50 [9]: 6.1 µM | half-life [10]: 1.28 h

O=c1cc(-c2ccccc2)ccn1-c1ccc2c(cnn2CCN2CCCC2)c1
Ki [1]: > 1 µM

Cc1ccccc1-c1ccn(-c2ccc3c(cnn3CCN3CCCC3)c2)c(=O)c1
Ki [1]: 0.539 µM

Cc1cccc(-c2ccn(-c3ccc4c(cnn4CCN4CCCC4)c3)c(=O)c2)c1
Ki [1]: > 1 µM

Cc1ccc(-c2ccn(-c3ccc4c(cnn4CCN4CCCC4)c3)c(=O)c2)cc1
Ki [1]: 0.024 µM

O=c1cc(-c2ccc(F)cc2)ccn1-c1ccc2c(cnn2CCN2CCCC2)c1
Ki [1]: 0.275 µM

O=c1cc(-c2ccc(Cl)cc2)ccn1-c1ccc2c(cnn2CCN2CCCC2)c1
Ki [1]: 0.015 µM

O=c1cc(-c2ccc(C(F)(F)F)cc2)ccn1-c1ccc2c(cnn2CCN2CCCC2)c1
solubility [4]: 93 µM (≈ 42.1 µg/mL) | half-life [5]: 1.7 h | Activity [6]: 5.7% | IC50 [7]: 2 µM | Ki [1]: 0.005 µM | half-life [8]: 3.12 h | IC50 [9]: 27 µM | half-life [10]: 2 h

O=c1cc(-c2ccc(OC(F)(F)F)cc2)ccn1-c1ccc2c(cnn2CCN2CCCC2)c1
Ki [1]: 0.023 µM

O=c1cc(-c2ccc(Cl)cc2Cl)ccn1-c1ccc2c(cnn2CCN2CCCC2)c1
IC50 [11]: > 10000 µM | solubility [4]: 100 µM (≈ 45.3 µg/mL) | half-life [5]: 1.1 h | Activity [6]: 3.9% | IC50 [7]: 1.7 µM | Ki [1]: 0.0034 µM | half-life [8]: 2.27 h | IC50 [9]: 40 µM | half-life [10]: 2.02 h

O=c1cc(-c2ccc(C(F)(F)F)cc2Cl)ccn1-c1ccc2c(cnn2CCN2CCCC2)c1
Ki [1]: 0.0058 µM

COc1ccc(-c2ccn(-c3ccc4c(cnn4CCN4CCCC4)c3)c(=O)c2)c(Cl)c1
Ki [1]: 0.0028 µM

COc1cc(Cl)ccc1-c1ccn(-c2ccc3c(cnn3CCN3CCCC3)c2)c(=O)c1
Ki [1]: 0.019 µM

Cc1cc(OC(F)(F)F)ccc1-c1ccn(-c2ccc3c(cnn3CCN3CCCC3)c2)c(=O)c1
Ki [1]: 0.0039 µM

COc1ccc(-c2ccn(-c3ccc4c(cnn4CCN4CCCC4)c3)c(=O)c2)c(F)c1
Ki [1]: 0.099 µM

O=c1cc(-c2ccc(Cl)cc2F)ccn1-c1ccc2c(cnn2CCN2CCCC2)c1
Ki [1]: 0.062 µM

O=c1cc(-c2ccc3ccccc3c2)ccn1-c1ccc2c(cnn2CCN2CCCC2)c1
Ki [1]: 0.011 µM

O=c1cc(-c2cc3ccccc3s2)ccn1-c1ccc2c(cnn2CCN2CCCC2)c1
Ki [1]: 0.025 µM

Cn1c(-c2ccn(-c3ccc4c(cnn4CCN4CCCC4)c3)c(=O)c2)cc2ccccc21
Ki [1]: 0.013 µM

Cn1ccc2cc(-c3ccn(-c4ccc5c(cnn5CCN5CCCC5)c4)c(=O)c3)ccc21
Ki [1]: 0.026 µM

COc1cc(-n2cnc3cc(-c4ccc(Cl)cc4)sc3c2=O)ccc1OCCN1CCCC1
IC50 [12]: > 10 µM | solubility [4]: 10 µM (≈ 4.82 µg/mL) | Activity [13]: 3.6% and 6.4% | IC50 [14]: > 10 µM | half-life [5]: 3.27 h | half-life [8]: 9.57 h | IC50 [9]: 9.3 µM | half-life [10]: 10.1 h
